Source: US20250057827A1, “CYTOTOXICITY TARGETING CHIMERAS FOR PROSTATE SPECIFIC MEMBRANE ANTIGEN-EXPRESSING CELLS” (GLAXOSMITHKLINE INTELLECTUAL PROPERTY DEVELOPMENT LIMITED, priority 2022, published 2025)

These molecules were tested against T1, PSMA (target cells: LNCaP cells) (Homo sapiens, UniProt Q04609) (assay: Antibody dependent cellular cytotoxicity (ADCC) reporter assay). Details: anti-cotinine antibody (SEQ ID NO: 11/12), Jurkat FcγRIIIa NFAT-luciferase reporter cells, 12-18 hours, EC50 in molar, average if more than one run.
T1 construct: Target cells: LNCaP cells (typically 1000-20,000 cells per well); endogenous in cells; host or cells: LNCaP cells (target cells); Jurkat FcγRIIIa/NFAT-luciferase reporter cells also in the well
T1 sequence (Q04609 whole entry): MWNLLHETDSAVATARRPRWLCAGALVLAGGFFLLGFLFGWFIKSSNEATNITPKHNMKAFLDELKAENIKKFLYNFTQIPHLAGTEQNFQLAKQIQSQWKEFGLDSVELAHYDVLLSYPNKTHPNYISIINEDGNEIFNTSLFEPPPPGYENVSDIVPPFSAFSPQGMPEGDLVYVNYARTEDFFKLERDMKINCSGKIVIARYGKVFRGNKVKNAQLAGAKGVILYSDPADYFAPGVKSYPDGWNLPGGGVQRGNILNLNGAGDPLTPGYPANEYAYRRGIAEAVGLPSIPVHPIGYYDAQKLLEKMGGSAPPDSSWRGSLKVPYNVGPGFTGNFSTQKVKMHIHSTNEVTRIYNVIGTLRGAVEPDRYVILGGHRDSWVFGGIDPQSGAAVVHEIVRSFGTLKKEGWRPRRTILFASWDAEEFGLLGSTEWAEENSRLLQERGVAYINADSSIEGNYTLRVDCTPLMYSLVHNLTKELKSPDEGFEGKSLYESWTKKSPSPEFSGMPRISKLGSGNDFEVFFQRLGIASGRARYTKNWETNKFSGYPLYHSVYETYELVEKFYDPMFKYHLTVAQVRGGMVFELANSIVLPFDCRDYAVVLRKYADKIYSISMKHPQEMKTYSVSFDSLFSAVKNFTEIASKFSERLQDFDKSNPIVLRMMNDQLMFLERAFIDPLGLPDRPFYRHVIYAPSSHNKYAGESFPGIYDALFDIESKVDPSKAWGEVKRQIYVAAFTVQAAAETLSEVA
Format: cell-based
Design: key to ADCC Reporter Assay pEC50: Inactive: inactive = pEC50 < 5
Method: An antibody dependent cellular cytotoxicity (ADCC) reporter assay was conducted using the following four assay components: (i) ARM compound of Formula (I) targeting PSMA (concentrations ranging from 1 pM to 10 μM); (ii) anti-cotinine antibody having a heavy chain sequence of SEQ ID NO: 11 and a light chain sequence of SEQ ID NO: 12 (rabbit variable region with human IgG1 Fc domain containing DE mutation (S239D/I332E)) (concentrations ranging from 0.01 μg/mL-200 μg/mL); (iii) Target cells: LNCaP cells (typically 1000-20,000 cells per well); and (iv) Reporter cells—Jurkat cells engineered to express FcγRIIIa with a reporter gene luciferase under the control of the NFAT promoter (typically 3000-75,000 cells per well). Reagents were combined in final volume of 20 μL in 384—well tissue culture treated plate. All four assay components were incubated together for about 12-18 hours. Thereafter, BioGlo Detection reagent (Promega) was added to the wells to lyse the cells and provide a substrate for the luciferase reporter protein.
Luminescence signal was measured on a microplate reader capable of measuring luminescence and signal: background was calculated by dividing the signal of a test well by the signal obtained when no compound of formula (I) was included in the assay. EC50 calculations were done using Graphpad Prism Software, specifically a nonlinear regression curve fit (Y=Bottom+(Top−Bottom)/(1+10^((Log EC50−X)*HillSlope))).
ARMs compounds of Formula (I) were tested for ADCC activity in the above assay in one or more experimental runs and the results are shown in Table 3 below. Potency of the compounds of Formula (I) is reported as a pEC50 values. The pEC50 value is the negative log of the EC50 value, wherein the EC50 value is half maximal effective concentration measured in molar (M). For compounds tested in more than one experimental run, the pEC50 value is reported as an average.
For `CN1C(=O)C[C@H](C(=O)N[C@@H](Cc2ccc3ccccc3c2)C(=O)NCCCC[C@H](NC(=O)N[C@@H](CCC(=O)O)C(=O)O)C(=O)O)[C@H]1c1cccnc1` [Example 10, (((S)-1-Carboxy-5-((S)-2-((2S,3S)-1-methyl-5-oxo-2-(pyridin-3-yl)pyrrolidine-3-carboxamido)-3-(naphthalen-2-yl)propanamido)pentyl)carbamoyl)-L-glutamic acid], the “ADCC Reporter Assay pEC50” value was “Inactive^1”.

Same assay, conditions: anti-cotinine antibody (SEQ ID NO: 11/12), Jurkat FcγRIIIa NFAT-luciferase reporter cells, 12-18 hours, EC50 in molar, average if more than one run, read-out: ADCC Reporter Assay pEC50 (converted)
For `CN1C(=O)C[C@H](C(=O)NCCO[C@H]2CC[C@H](OCCCC(=O)N[C@H]3CC[C@H](C(=O)N[C@@H](Cc4ccc5ccccc5c4)C(=O)NCCCC[C@H](NC(=O)N[C@@H](CCC(=O)O)C(=O)O)C(=O)O)CC3)CC2)[C@H]1c1cccnc1` (racemic) [Example 8, (((S)-1-Carboxy-5-((S)-2-((1R,4S)-4-(4-(((1S,4R)-4-(2-((2S,3S)-1-methyl-5-oxo-2-(pyridin-3-yl)pyrrolidine-3-carboxamido)ethoxy)cyclohexyl)oxy)butanamido)cyclohexane-1-carboxamido)-3-(naphthalen-2-yl)propanamido)pentyl)carbamoyl)-L-glutamic acid], the EC50 was 2.24 nM.
`CN1C(=O)C[C@H](C(=O)NCCO[C@H]2CC[C@H](OCCCC(=O)N[C@H]3CC[C@H](C(=O)N4CCN(C(=O)CC[C@H](NC(=O)N[C@@H](CCC(=O)O)C(=O)O)C(=O)O)CC4)CC3)CC2)[C@H]1c1cccnc1` [Example 1, (((S)-1-Carboxy-4-(4-((1R,4R)-4-(4-(((1S,4R)-4-(2-((2S,3S)-1-methyl-5-oxo-2-(pyridin-3-yl)pyrrolidine-3-carboxamido)ethoxy)cyclohexyl)oxy)butanamido)cyclohexane-1-carbonyl)piperazin-1-yl)-4-oxobutyl)carbamoyl)-L-glutamic acid] showed an EC50 of 50.1 nM.
With `CN1C(=O)C[C@H](C(=O)NCCO[C@H]2CC[C@H](OCCCC(=O)N[C@H]3CC[C@H](C(=O)N[C@H]4CC[C@@H](NC(=O)CC[C@H](NC(=O)N[C@@H](CCC(=O)O)C(=O)O)C(=O)O)CC4)CC3)CC2)[C@H]1c1cccnc1` [Example 2, (((S)-1-Carboxy-4-(((1S,4S)-4-((1R,4S)-4-(4-(((1S,4R)-4-(2-((2S,3S)-1-methyl-5-oxo-2-(pyridin-3-yl)pyrrolidine-3-carboxamido)ethoxy)cyclohexyl)oxy)butanamido)cyclohexane-1-carboxamido)cyclohexyl)amino)-4-oxobutyl)carbamoyl)-L-glutamic acid] the EC50 was 50.1 nM.
For `CN1C(=O)C[C@H](C(=O)NCCO[C@H]2CC[C@H](OCCCC(=O)N[C@H]3CC[C@H](C(=O)NCCNC(=O)CC[C@H](NC(=O)N[C@@H](CCC(=O)O)C(=O)O)C(=O)O)CC3)CC2)[C@H]1c1cccnc1` [Example 3, (9S,13S)-1-((1R,4R)-4-(4-(((1S,4R)-4-(2-((2S,3S)-1-Methyl-5-oxo-2-(pyridin-3-yl)pyrrolidine-3-carboxamido)ethoxy)cyclohexyl)oxy)butanamido)cyclohexyl)-1,6,11-trioxo-2,5,10,12-tetraazapentadecane-9,13,15-tricarboxylic acid], the EC50 was 126 nM.
`CN1C(=O)C[C@H](C(=O)NCCO[C@H]2CC[C@H](OCCCC(=O)N[C@H]3CC[C@H](C(=O)N[C@H]4CC[C@H](NC(=O)CC[C@H](NC(=O)N[C@@H](CCC(=O)O)C(=O)O)C(=O)O)CC4)CC3)CC2)[C@H]1c1cccnc1` [Example 4, (((S)-1-Carboxy-4-(((1R,4R)-4-((1R,4R)-4-(4-(((1S,4R)-4-(2-((2S,3S)-1-methyl-5-oxo-2-(pyridin-3-yl)pyrrolidine-3-carboxamido)ethoxy)cyclohexyl)oxy)butanamido)cyclohexane-1-carboxamido)cyclohexyl)amino)-4-oxobutyl)carbamoyl)-L-glutamic acid] showed an EC50 of 50.1 nM.
Work on `CN1C(=O)C[C@H](C(=O)NCCNC(=O)[C@H](Cc2ccccc2)NC(=O)[C@H](Cc2ccccc2)NC(=O)CCCCCCCNC(=O)CC[C@H](NC(=O)N[C@@H](CCC(=O)O)C(=O)O)C(=O)O)[C@H]1c1cccnc1` [Example 5, (7S,10S,24S,28S)-7,10-Dibenzyl-1-((2S,3S)-1-methyl-5-oxo-2-(pyridin-3-yl)pyrrolidin-3-yl)-1,6,9,12,21,26-hexaoxo-2,5,8,11,20,25,27-heptaazatriacontane-24,28,30-tricarboxylic acid] yielded an EC50 of 39.8 nM.
Molecule `CN1C(=O)C[C@H](C(=O)NCCO[C@H]2CC[C@H](OCCCC(=O)N[C@H]3CC[C@H](C(=O)NCCNC(=O)[C@H](Cc4ccccc4)NC(=O)[C@H](Cc4ccccc4)NC(=O)CCCCCCCNC(=O)CC[C@H](NC(=O)N[C@@H](CCC(=O)O)C(=O)O)C(=O)O)CC3)CC2)[C@H]1c1cccnc1` [Example 6, (7S,10S,24S,28S)-7,10-dibenzyl-1-((1R,4S)-4-(4-(((1S,4R)-4-(2-((2S,3S)-1-methyl-5-oxo-2-(pyridin-3-yl)pyrrolidine-3-carboxamido)ethoxy)cyclohexyl)oxy)butanamido)cyclohexyl)-1,6,9,12,21,26-hexaoxo-2,5,8,11,20,25,27-heptaazatriacontane-24,28,30-tricarboxylic acid] has an EC50 of 39.8 nM.
`CN1C(=O)C[C@H](C(=O)NCCOCCOCCOCCOCCOCCOCCOCCOCCOCCOCCOCCOCCC(=O)NCCNC(=O)[C@H](Cc2ccccc2)NC(=O)[C@H](Cc2ccccc2)NC(=O)CCCCCCCNC(=O)CC[C@H](NC(=O)N[C@@H](CCC(=O)O)C(=O)O)C(=O)O)[C@H]1c1cccnc1` [Example 7, (47S,50S,64S,68S)-47,50-Dibenzyl-1-((2S,3S)-1-methyl-5-oxo-2-(pyridin-3-yl)pyrrolidin-3-yl)-1,41,46,49,52,61,66-heptaoxo-5,8,11,14,17,20,23,26,29,32,35,38-dodecaoxa-2,42,45,48,51,60,65,67-octaazaheptacontane-64,68,70-tricarboxylic acid] showed an EC50 of 126 nM.
With `CN1C(=O)C[C@H](C(=O)NCCOCCOCCOCCOCCOCCOCCOCCOCCOCCOCCOCCOCCC(=O)N[C@@H](Cc2ccc3ccccc3c2)C(=O)NCCCC[C@H](NC(=O)N[C@@H](CCC(=O)O)C(=O)O)C(=O)O)[C@H]1c1cccnc1` [Example 9, (((S)-1-Carboxy-5-((S)-2-(1-((2S,3S)-1-methyl-5-oxo-2-(pyridin-3-yl)pyrrolidin-3-yl)-1-oxo-5,8,11,14,17,20,23,26,29,32,35,38-dodecaoxa-2-azahentetracontan-41-amido)-3-(naphthalen-2-yl)propanamido)pentyl)carbamoyl)-L-glutamic acid] the EC50 was 8.91 nM.
